Laboratory results reported in paper PMC5937082, “Prediction of Lipophilicity and Pharmacokinetics of Chloroacetamides by Chemometric Approach” (Iranian Journal of Pharmaceutical Research : IJPR, 2018).
Blank lines part the entries; values can stand above or below the compound they belong to.

Test: Lipophilicity by reversed-phase thin-layer chromatography (RPTLC, RP-18W/UV254 plates)
Assay type: physicochemical
Conditions: φ = 0.34 - 0.56 v/v, room temperature
Procedure: During chromatographic examinations commercial plates (RP-18W/UV254 Macherey-Nagel GmBH and Co., Duren, Germany) were used as the stationary phase. Mixtures of LC grade organic modifiers (J. T. Baker, Deventer, the Netherlands) and filtered bi-distilled water were used as the mobile phase.
The tested chloroacetamides were dissolved in ethanol (analytical purity) in concentration 2 mg mL^–1. About 0.2 µL of freshly prepared solution of each compound was spotted on the plates which were then developed by the ascending technique in the unsaturated chambers at room temperature with an aqueous solutions of two organic modifiers: methanol (φ = 0.34 - 0.56, v/v) and acetone (φ = 0.34 - 0.56, v/v). The visualization of the tested compounds on the dried developed plates was performed under a UV light at λ= 254 nm. In both applied modifiers for each composition three chromatograms were developed and then the average Rf values were calculated.
From the experimentally obtained Rf values, for each composition of the mobile phase, RM values were calculated according to the Equation: […]
The relationships between the retention values, RM, of the compound and the volume fraction of the organic modifier in the mobile phase, φ, were given by:
Where intercept, RM^0, represents the chromatographic retention constant, while the slope of the linear plot, m, which is the change in RM is caused by the unit of the organic modifier concentration in the mobile phase and depends on the properties of the solute. Commonly, it is related to the specific hydrophobic surface area of the compound ([39]). Chromatographic parameter m can be applied as alternative measure of lipophilicity, also ([40], [41]).Values of these parameters obtained for chloroacetamides in the used modifiers are given in Table 4.

SMILES: Cc1ccc(NC(=O)CCl)cc1 [Compound 4CH3]
R M ^0 (chromatographic retention constant, intercept) (acetone-water mobile phase): 1.370 (±0.097)
m (slope of RM vs φ) (acetone-water mobile phase): -2.583 (±0.220)
R M ^0 (chromatographic retention constant, intercept) (methanol-water mobile phase): 1.542 (±0.067)
m (slope of RM vs φ) (methanol-water mobile phase): -2.673 (±0.146)

SMILES: CC(=O)c1ccc(NC(=O)CCl)cc1 [Compound 4COCH3]
R M ^0 (chromatographic retention constant, intercept) (acetone-water mobile phase): 1.118 (±0.077)
m (slope of RM vs φ) (acetone-water mobile phase): -2.396 (±0.173)
R M ^0 (chromatographic retention constant, intercept) (methanol-water mobile phase): 1.275 (±0.121)
m (slope of RM vs φ) (methanol-water mobile phase): -2.549 (±0.263)

SMILES: COc1ccc(NC(=O)CCl)cc1 [Compound 4OCH3]
R M ^0 (chromatographic retention constant, intercept) (acetone-water mobile phase): 1.130 (±0.115)
m (slope of RM vs φ) (acetone-water mobile phase): -2.431 (±0.258)
R M ^0 (chromatographic retention constant, intercept) (methanol-water mobile phase): 1.247 (±0.122)
m (slope of RM vs φ) (methanol-water mobile phase): -2.478 (±0.265)

SMILES: O=C(CCl)Nc1ccccc1 [H]
R M ^0 (chromatographic retention constant, intercept) (acetone-water mobile phase): 1.106 (±0.132)
m (slope of RM vs φ) (acetone-water mobile phase): -2.225 (±0.285)
R M ^0 (chromatographic retention constant, intercept) (methanol-water mobile phase): 1.171 (±0.123)
m (slope of RM vs φ) (methanol-water mobile phase): -2.309 (±0.268)

The remaining lines, values ahead:

R M ^0 (chromatographic retention constant, intercept) (acetone-water mobile phase): 1.780 (±0.105)
m (slope of RM vs φ) (acetone-water mobile phase): -3.105 (±0.238)
R M ^0 (chromatographic retention constant, intercept) (methanol-water mobile phase): 1.958 (±0.115)
m (slope of RM vs φ) (methanol-water mobile phase): -3.151 (±0.251)
SMILES: O=C(CCl)Nc1cccc(Br)c1 [Compound 3Br]

R M ^0 (chromatographic retention constant, intercept) (acetone-water mobile phase): 1.186 (±0.101)
m (slope of RM vs φ) (acetone-water mobile phase): -2.278 (±0.218)
R M ^0 (chromatographic retention constant, intercept) (methanol-water mobile phase): 1.362 (±0.082)
m (slope of RM vs φ) (methanol-water mobile phase): -2.726 (±0.182)
SMILES: N#Cc1cccc(NC(=O)CCl)c1 [Compound 3CN]

R M ^0 (chromatographic retention constant, intercept) (acetone-water mobile phase): 1.849 (±0.087)
m (slope of RM vs φ) (acetone-water mobile phase): -3.175 (±0.195)
R M ^0 (chromatographic retention constant, intercept) (methanol-water mobile phase): 1.951 (±0.100)
m (slope of RM vs φ) (methanol-water mobile phase): -3.137 (±0.218)
SMILES: O=C(CCl)Nc1ccc(Br)cc1 [Compound 4Br]

R M ^0 (chromatographic retention constant, intercept) (acetone-water mobile phase): 1.074 (±0.117)
m (slope of RM vs φ) (acetone-water mobile phase): -2.033 (±0.263)
R M ^0 (chromatographic retention constant, intercept) (methanol-water mobile phase): 1.382 (±0.039)
m (slope of RM vs φ) (methanol-water mobile phase): -2.749 (±0.086)
SMILES: N#Cc1ccc(NC(=O)CCl)cc1 [Compound 4CN]

R M ^0 (chromatographic retention constant, intercept) (acetone-water mobile phase): 1.636 (±0.139)
m (slope of RM vs φ) (acetone-water mobile phase): -2.945 (±0.313)
R M ^0 (chromatographic retention constant, intercept) (methanol-water mobile phase): 1.788 (±0.140)
m (slope of RM vs φ) (methanol-water mobile phase): -2.944 (±0.306)
SMILES: O=C(CCl)Nc1ccc(Cl)cc1 [Compound 4Cl]

R M ^0 (chromatographic retention constant, intercept) (acetone-water mobile phase): 1.341 (±0.042)
m (slope of RM vs φ) (acetone-water mobile phase): -2.440 (±0.095)
R M ^0 (chromatographic retention constant, intercept) (methanol-water mobile phase): 1.354 (±0.088)
m (slope of RM vs φ) (methanol-water mobile phase): -2.486 (±0.192)
SMILES: O=C(CCl)Nc1ccc(F)cc1 [Compound 4F]

R M ^0 (chromatographic retention constant, intercept) (acetone-water mobile phase): 1.963 (±0.143)
m (slope of RM vs φ) (acetone-water mobile phase): -3.375 (±0.323)
R M ^0 (chromatographic retention constant, intercept) (methanol-water mobile phase): 2.124 (±0.122)
m (slope of RM vs φ) (methanol-water mobile phase): -3.282 (±0.266)
SMILES: O=C(CCl)Nc1ccc(I)cc1 [Compound 4I]

R M ^0 (chromatographic retention constant, intercept) (acetone-water mobile phase): 0.763 (±0.030)
m (slope of RM vs φ) (acetone-water mobile phase): -1.865 (±0.068)
R M ^0 (chromatographic retention constant, intercept) (methanol-water mobile phase): 1.577 (±0.069)
m (slope of RM vs φ) (methanol-water mobile phase): -3.032 (±0.154)
SMILES: O=C(CCl)Nc1ccc(O)cc1 [Compound 4OH]
